In patent US11530217B1, “Antitubercular compounds” (priority 2022, dated 2022):
Values after ≈ are worked out from the molar mass of the structure shown.

What follows are compounds tested on susceptible H37Rv MTB strain (assay: Resazurin Microplate Assay (REMA), anti-tubercular activity, H37Rv). Details: Mycobacterium tuberculosis, 192 h; in vitro, REMA, susceptible H37Rv MTB strain, 8 days incubation; read-out: MIC (μg/mL) H37Rv.
Format: cell-based

Row | SMILES | MIC [µg/mL]
1 | COC(=O)c1c(C(=O)OC)c2c(C)cc(C)cn2c1C(=O)c1ccc(C#N)cc1 [Compound 5l, Dimethyl 3-(4-cyanobenzoyl)-6,8-dimethylindolizine-1,2-dicarboxylate] | 4 (≈ 10.2 µM)
2 | COC(=O)c1c(C(=O)OC)c2c(C)cc(C)cn2c1C(=O)c1ccc(Cl)cc1 [Compound 5d, Dimethyl 3-(4-chlorobenzoyl)-6,8-dimethylindolizine-1,2-dicarboxylate] | 8 (≈ 20 µM)
3 | CCOC(=O)c1cc(C(=O)c2ccc(Cl)cc2)n2cc(C)cc(C)c12 [Compound 5c, Ethyl 3-(4-chlorobenzoyl)-6,8-dimethylindolizine-1-carboxylate] | 0.5 (≈ 1.41 µM)

Same assay, conditions: Mycobacterium tuberculosis, H37RV, 192 h, read-out: MIC (μg/mL) H37Rv

Row | SMILES | MIC [µg/mL]
4 | CCOC(=O)c1cc(C(=O)c2ccc(C#N)cc2)n2cc(C)cc(C)c12 [Compound 5j, Ethyl 3-(4-cyanobenzoyl)-6,8-dimethylindolizine-1-carboxylate] | 0.5 (≈ 1.44 µM)
5 | CCOC(=O)c1cc(C(=O)c2ccccc2[N+](=O)[O-])n2cc(C)cc(C)c12 [Compound 5h, Ethyl 6,8-dimethyl-3-(2-nitrobenzoyl)indolizine-1-carboxylate] | 4 (≈ 10.9 µM)
6 | COC(=O)c1c(C(=O)OC)c2c(C)cc(C)cn2c1C(=O)c1ccc(OC)cc1 [Compound 5b, Dimethyl 3-(4-methoxybenzoyl)-6,8-dimethylindolizine-1,2-dicarboxylate] | 4 (≈ 10.1 µM)
7 | COC(=O)c1c(C(=O)OC)c2c(C)cc(C)cn2c1C(=O)c1ccc(C)cc1 [Compound 5m, Dimethyl 6,8-dimethyl-3-(4-methylbenzoyl)indolizine-1,2-dicarboxylate] | 0.25 (≈ 0.659 µM)
8 | CCOC(=O)c1cc(C(=O)c2cc(C(F)(F)F)cc(C(F)(F)F)c2)n2cc(C)cc(C)c12 [Compound 5i, Ethyl 3-(3,5-bis(trifluoromethyl)benzoyl)-6,8-dimethylindolizine-1-carboxylate] | 4 (≈ 8.75 µM)
9 | CCOC(=O)c1cc(C(=O)c2ccc(C)cc2)n2cc(C)cc(C)c12 [Compound 5k, Ethyl 6,8-dimethyl-3-(4-methylbenzoyl)indolizine-1-carboxylate] | 0.5 (≈ 1.49 µM)
10 | CCOC(=O)c1cc(C(=O)c2ccc(F)cc2)n2cc(C)cc(C)c12 [Compound 5g, Ethyl 3-(4-fluorobenzoyl)-6,8-dimethylindolizine-1-carboxylate] | 4 (≈ 11.8 µM)
